Data as given in publication PMC4184574, “Enantioselectivity in the cytochrome P450-dependent conversion of tegafur to 5-fluorouracil in human liver microsomes” (Pharmacology Research & Perspectives, 2013).

Target: T1, CYP2A6 (Homo sapiens, UniProt P11509)
T1 sequence (P11509 1-494): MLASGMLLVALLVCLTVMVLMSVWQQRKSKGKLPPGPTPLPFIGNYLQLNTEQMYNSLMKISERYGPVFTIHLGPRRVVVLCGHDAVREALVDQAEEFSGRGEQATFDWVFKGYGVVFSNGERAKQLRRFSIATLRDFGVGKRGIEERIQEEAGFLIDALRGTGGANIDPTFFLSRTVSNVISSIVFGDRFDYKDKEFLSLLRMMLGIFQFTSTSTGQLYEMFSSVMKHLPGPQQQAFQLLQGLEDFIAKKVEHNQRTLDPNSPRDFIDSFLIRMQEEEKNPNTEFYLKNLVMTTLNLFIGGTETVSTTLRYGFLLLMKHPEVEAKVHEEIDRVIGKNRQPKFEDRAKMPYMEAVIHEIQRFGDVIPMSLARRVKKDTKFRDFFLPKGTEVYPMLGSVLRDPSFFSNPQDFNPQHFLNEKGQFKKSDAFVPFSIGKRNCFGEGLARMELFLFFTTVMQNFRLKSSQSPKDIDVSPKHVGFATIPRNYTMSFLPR
Assay: 5-FU formation from FT enantiomers by cDNA-expressed CYP2A6 (kinetics, velocity, RAF contribution)
Settings: for CYP contribution: CYP2A6, RAF method, 30 μmol/L
From the text: Human hepatic 9000g supernatant (S9) and cytosolic fraction were purchased from XenoTech, LLC. (pooled preparations from 20 donors; Kansas City, KS). Human hepatic microsomes from five individuals (HG32, HH94, HH81, HH74, and HH31), a pooled preparation from 150 donors, and microsomes prepared from insect cell lines expressing CYP1A2, 2A6, 2B6, 2C8, 2C9, 2C19, 2D6, 2E1, and 3A4 were purchased from BD Gentest. Insect microsomes expressing only NADPH-P450 oxidoreductase and cytochrome b5 were also used as control. These enzymes were stored at −80°C until use.
Metabolic reaction by S9 and cytosol (each 2 mg protein/mL) was carried out in 100 mmol/L phosphate (pH 7.4) because TPase requires phosphate ions for catalyzing the reaction. In some cases, insect microsomes expressing recombinant CYP isoforms (20 pmol/mL) were added to the incubation mixtures in either 50, 100 mmol/L phosphate (pH 7.4) or 100 mmol/L Tris (pH 7.4), depending on supplier's recommendation. Microsomal protein concentrations of all cDNA-expressed CYPs were adjusted to 0.5 mg protein/mL by adding control microsomes expressing NADPH-P450 oxidoreductase and cytochrome b5. The reaction for the assay of FT metabolism was initiated by adding the substrate, following preincubation for 5 min at 37°C. After incubation at 37°C, the reaction was stopped by adding three volumes of ice-cold acetonitrile. The incubation times of microsomes, cytosol, and S9 were 15, 15, and 30 min, respectively. After centrifugation, the supernatant was collected and stored at −80°C until the determination of 5-FU. Because a small portion of FT is nonenzymatically converted to 5-FU, the content of 5-FU spontaneously formed was subtracted from total yield obtained after incubation to correct the activity. The spontaneous degradation of FT to 5-FU was evaluated using enzymes inactivated by heating them at 100°C for 5 min.
Concentration of 5-FU was determined using a LC/MS/MS system. The analytical system consisted of a HP1100 liquid chromatograph (Agilent Technologies, CA) coupled with an API4000 triple-quadrupole mass spectrometer (Applied Biosystems, CA) equipped with Turbo V source and ESI interface. Sample separation was performed using an Unison UK-Amino column (2.0 mm i.d. × 100 mm, 3 μm; Imtakt, Kyoto, Japan) at a flow rate of 0.2 mL/min at 40°C. The mobile phase consisted of 10 mmol/L ammonium acetate/acetonitrile 10:90 (v/v). […] For quantification of 5-FU, the calibration curves were linear over the range 2–1000 ng/mL.
Kinetic studies were performed using microsomes from five human livers (HG32, HH94, HH81, HH74, and HH31), cDNA-expressed CYP isoforms, or pooled human hepatic cytosol. In determining kinetic parameters, FT concentration ranged from 0.03 to 10 mmol/L. All reactions were performed in a linear range of 5-FU formation with respect to protein or CYP concentrations and incubation time.
Intrinsic clearance (CLint) was calculated as a ratio of V/S where V and S were the metabolite formation rate and the concentration of a probe substrate for CYP isoform, respectively, when the substrate concentration was well below the Km value. The RAF for each CYP isoform was calculated according to equation (3) (Venkatakrishnan et al. [2000]). [drawing 3] (3) n = 1A2, 2A6, 2C19, or 2E1.
The contribution of CYPn to the metabolism of R- and S-FT at their concentration of 30 μmol/L was subsequently calculated using equation (4). [drawing 4] (4) VCYPn = 5-FU formation rate in cDNA-expressed CYPn.

Compound | CYP contribution [%] | CLint (cDNA-expressed CYP2A6) [nL min^−1 pmol^−1 CYP] | Km (cDNA-expressed CYP2A6) [µM] | Vmax (cDNA-expressed CYP2A6) [pmol min^−1 pmol^−1 CYP]
O=c1[nH]c(=O)n([C@H]2CCCO2)cc1F [R-FT] | 87.6 | 26 | 170 ± 10 | 4.5 ± 0.1
O=c1[nH]c(=O)n([C@@H]2CCCO2)cc1F [S-FT] | 84.8 | 4.9 | – | 5.6 ± 0.3
